Laboratory results reported in patent publication US5593984A, “Cephalosporin derivatives” (Yuhan Corporation, priority 1992, dated 1997).
In brackets after ≈: the same amount, converted by molar mass. Like-named read-outs stand apart in the source and are kept apart here.

Tests used:
Ps. aeruginosa DY-2 = test: MIC by agar dilution, Ps. aeruginosa DY-2; format: cell-based; details: Pseudomonas aeruginosa, DY2, 17 h, read-out: Minimal Inhibitory Concentration (MIC)
Outline: (§1)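 Two-fold dilutions of compound were dispersed in Mueller-Hinton agar, inoculated with test strain at 10^6 CFU per ml, and incubated at 35°-37° C. for 17±1 hours; MIC read from agar dilution.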

[1] = test system: Ps. aeruginosa NCTC 10490; test: MIC by agar dilution, Ps. aeruginosa NCTC 10490; format: cell-based; details: Pseudomonas aeruginosa, NCTC10490, 17 h, Mueller-Hinton agar, read-out: Minimal Inhibitory Concentration (MIC)
Outline: as §1

Staph. aureus C-5113 = test: MIC by agar dilution, Staph. aureus C-5113; format: cell-based; details: Staphylococcus aureus, C5113, 17 h, Mueller-Hinton agar, read-out: Minimal Inhibitory Concentration (MIC)
Outline: as §1

B. subtilis ATCC 6633 = test: MIC by agar dilution, B. subtilis ATCC 6633; format: cell-based; details: Bacillus subtilis, ATCC6633, 17 h, read-out: Minimal Inhibitory Concentration (MIC)
Outline: as §1

E. coli DY-1 = test: MIC by agar dilution, E. coli DY-1; format: cell-based; details: Escherichia coli, DY1, 17 h, read-out: Minimal Inhibitory Concentration (MIC)
Outline: as §1

Staph. aureus C-57 = test: MIC by agar dilution, Staph. aureus C-57; format: cell-based; details: Staphylococcus aureus, C57, 17 h, Mueller-Hinton agar, read-out: Minimal Inhibitory Concentration (MIC)
Outline: as §1

[2] = test system: Ser. marcescens IFO 12648; test: MIC by agar dilution, Ser. marcescens IFO 12648; format: cell-based; details: Serratia marcescens, IFO12648, 17 h, read-out: Minimal Inhibitory Concentration (MIC)
Outline: as §1

[3] = test system: S. epidermidis ATCC 12228; test: MIC by agar dilution, S. epidermidis ATCC 12228; format: cell-based; details: Staphylococcus epidermidis, ATCC12228, 17 h, read-out: Minimal Inhibitory Concentration (MIC)
Outline: as §1

E. coli No. 29 = test: MIC by agar dilution, E. coli No. 29; format: cell-based; details: Escherichia coli, read-out: Minimal Inhibitory Concentration (MIC)
Outline: as §1

[4] = test system: Ps. aeruginosa ATCC 10145; test: MIC by agar dilution, Ps. aeruginosa ATCC 10145; format: cell-based; details: Pseudomonas aeruginosa, ATCC10145, 17 h, Mueller-Hinton agar, read-out: Minimal Inhibitory Concentration (MIC)
Outline: as §1

K. pneumoniae NCTC 9632 = test: MIC by agar dilution, K. pneumoniae NCTC 9632; format: cell-based; details: Klebsiella pneumoniae, NCTC9632, 17 h, read-out: Minimal Inhibitory Concentration (MIC)
Outline: as §1

Staph. aureus Smith = test: MIC by agar dilution, Staph. aureus Smith; format: cell-based; details: Staphylococcus aureus, 17 h, Mueller-Hinton agar, read-out: Minimal Inhibitory Concentration (MIC)
Outline: as §1

[5] = test system: Gram-positive bacteria, in particular, Staphylococcus species; details: background art; cited from earlier work
M. morganii DY-1 = test: MIC by agar dilution, M. morganii DY-1; format: cell-based; details: Morganella morganii, DY1, 17 h, read-out: Minimal Inhibitory Concentration (MIC)
Outline: as §1

Ent. cloacae IFO 13535 = test: MIC by agar dilution, Ent. cloacae IFO 13535; format: cell-based; details: Enterobacter cloacae, IFO13535, 17 h, read-out: Minimal Inhibitory Concentration (MIC)
Outline: as §1

[6] = test system: Gram-negative bacteria such as Pseudomonas aeruginosa; details: background art; cited from earlier work
Prov. stuartii IFO 12930 = test: MIC by agar dilution, Prov. stuartii IFO 12930; format: cell-based; details: Providencia stuartii, IFO12930, 17 h, Mueller-Hinton agar, read-out: Minimal Inhibitory Concentration (MIC)
Outline: as §1

E. coli NIHJ JC-2 = test: MIC by agar dilution, E. coli NIHJ JC-2; format: cell-based; details: Escherichia coli, NIHJJC2, 17 h, read-out: Minimal Inhibitory Concentration (MIC)
Outline: as §1

Staph. aureus C-5216 = test: MIC by agar dilution, Staph. aureus C-5216; format: cell-based; details: Staphylococcus aureus, C5216, 17 h, Mueller-Hinton agar, read-out: Minimal Inhibitory Concentration (MIC)
Outline: as §1

Ent. aerogenes IFO 12979 = test: MIC by agar dilution, Ent. aerogenes IFO 12979; format: cell-based; details: Klebsiella aerogenes, IFO12979, 17 h, Mueller-Hinton agar, read-out: Minimal Inhibitory Concentration (MIC)
Outline: as §1

Staph. aureus ATCC 6538P = test: MIC by agar dilution, Staph. aureus ATCC 6538P; format: cell-based; details: Staphylococcus aureus, ATCC6538P, 17 h, read-out: Minimal Inhibitory Concentration (MIC)
Outline: as §1

P. vulgaris NCTC 8313 = test: MIC by agar dilution, P. vulgaris NCTC 8313; format: cell-based; details: Proteus vulgaris, NCTC8313, 17 h, read-out: Minimal Inhibitory Concentration (MIC)
Outline: as §1

[7] = Ps. aeruginosa DY-2, agar dilution, Mueller-Hinton agar
[8] = B. subtilis ATCC 6633, agar dilution, Mueller-Hinton agar
[9] = E. coli DY-1, agar dilution, Mueller-Hinton agar
[10] = Ser. marcescens IFO 12648, agar dilution, Mueller-Hinton agar
[11] = S. epidermidis ATCC 12228, agar dilution, Mueller-Hinton agar
[12] = 17 h, E. coli No. 29, agar dilution, Mueller-Hinton agar
[13] = K. pneumoniae NCTC 9632, agar dilution, Mueller-Hinton agar
[14] = M. morganii DY-1, agar dilution, Mueller-Hinton agar
[15] = Ent. cloacae IFO 13535, agar dilution, Mueller-Hinton agar
[16] = E. coli NIHJ JC-2, agar dilution, Mueller-Hinton agar
[17] = Staph. aureus ATCC 6538P, agar dilution, Mueller-Hinton agar
[18] = P. vulgaris NCTC 8313, agar dilution, Mueller-Hinton agar

| MIC [1] [µg/mL] | MIC (Staph. aureus C-5113) [µg/mL] | MIC (Staph. aureus C-57) [µg/mL] | MIC [4] [µg/mL] | MIC (Staph. aureus Smith) [µg/mL] | MIC (Prov. stuartii IFO 12930) [µg/mL] | MIC (Staph. aureus C-5216) [µg/mL] | MIC (Ent. aerogenes IFO 12979) [µg/mL] | MIC (Ps. aeruginosa DY-2; [7]) [µg/mL] | MIC (B. subtilis ATCC 6633; [8]) [µg/mL] | MIC (E. coli DY-1; [9]) [µg/mL] | MIC [2, 10] [µg/mL] | MIC [3, 11] [µg/mL] | MIC (E. coli No. 29; [12]) [µg/mL] | MIC (K. pneumoniae NCTC 9632; [13]) [µg/mL] | MIC (M. morganii DY-1; [14]) [µg/mL] | MIC (Ent. cloacae IFO 13535; [15]) [µg/mL] | MIC (E. coli NIHJ JC-2; [16]) [µg/mL] | MIC (Staph. aureus ATCC 6538P; [17]) [µg/mL] | MIC (P. vulgaris NCTC 8313; [18]) [µg/mL] | SMILES | other results |
| --- | --- | --- | --- | --- | --- | --- | --- | --- | --- | --- | --- | --- | --- | --- | --- | --- | --- | --- | --- | --- | --- |
| 0.78 (≈ 1.35 µM) | 0.78 (≈ 1.35 µM) | 6.25 (≈ 10.8 µM) | 3.13 (≈ 5.41 µM) | 0.78 (≈ 1.35 µM) | 0.025 (≈ 0.0433 µM) | 1.56 (≈ 2.7 µM) | 0.1 (≈ 0.173 µM) | 12.5 (≈ 21.6 µM) | 0.2 (≈ 0.346 µM) | 0.025 (≈ 0.0433 µM) | 0.39 (≈ 0.675 µM) | 0.05 (≈ 0.0865 µM) | 0.05 (≈ 0.0865 µM) | 0.78 (≈ 1.35 µM) | 0.1 (≈ 0.173 µM) | 0.78 (≈ 1.35 µM) | 0.39 (≈ 0.675 µM) | 0.39 (≈ 0.675 µM) | 0.05 (≈ 0.0865 µM) | CO/N=C(\C(=O)N[C@@H]1C(=O)N2C(C(=O)[O-])=C(C[n+]3ccn4ccc(CO)c4c3)CS[C@H]12)c1nc(N)sc1Cl [Ex. 54, 7-β-[(Z)-2-(2-amino-5-chlorothiazol-4-yl)-2-methoxyiminoacetamido]-3-(8-hydroxymethylpyrrolo[1,2-a]-pyrazinium-2-yl)methyl-3-cephem-4-carboxylate] | – |
| 0.1 (≈ 0.184 µM) | 6.25 (≈ 11.5 µM) | 25 (≈ 45.9 µM) | 0.78 (≈ 1.43 µM) | 1.56 (≈ 2.86 µM) | ≤ 0.006 | 3.13 (≈ 5.75 µM) | 0.025 (≈ 0.0459 µM) | 1.56 (≈ 2.86 µM) | 0.1 (≈ 0.184 µM) | 0.012 (≈ 0.022 µM) | 0.025 (≈ 0.0459 µM) | 0.2 (≈ 0.367 µM) | ≤ 0.006 | 0.025 (≈ 0.0459 µM) | 0.025 (≈ 0.0459 µM) | 0.1 (≈ 0.184 µM) | 0.012 (≈ 0.022 µM) | 0.78 (≈ 1.43 µM) | 0.05 (≈ 0.0918 µM) | CO/N=C(\C(=O)N[C@@H]1C(=O)N2C(C(=O)[O-])=C(C[n+]3ccn4ccc(CO)c4c3)CS[C@H]12)c1nsc(N)n1 [Ex. 55, 7-β-[(Z)-2-(5-amino-1,2,4-thiadiazol-3-yl)-2-methoxyiminoacetamido]-3-(8-hydroxymethylpyrrolo[1,2-a]-pyrazinium-2-yl)methyl-3-cephem-4-carboxylate] | – |

| SMILES | MIC [1] [µg/mL] | MIC (Staph. aureus C-5113) [µg/mL] | MIC (Staph. aureus C-57) [µg/mL] | MIC [4] [µg/mL] | MIC (Staph. aureus Smith) [µg/mL] | MIC (Prov. stuartii IFO 12930) [µg/mL] | MIC (Staph. aureus C-5216) [µg/mL] | MIC (Ent. aerogenes IFO 12979) [µg/mL] | MIC (Ps. aeruginosa DY-2; [7]) [µg/mL] | MIC (B. subtilis ATCC 6633; [8]) [µg/mL] | MIC (E. coli DY-1; [9]) [µg/mL] | MIC [2, 10] [µg/mL] | MIC [3, 11] [µg/mL] | MIC (E. coli No. 29; [12]) [µg/mL] | MIC (K. pneumoniae NCTC 9632; [13]) [µg/mL] | MIC (M. morganii DY-1; [14]) [µg/mL] | MIC (Ent. cloacae IFO 13535; [15]) [µg/mL] | MIC (E. coli NIHJ JC-2; [16]) [µg/mL] | MIC (Staph. aureus ATCC 6538P; [17]) [µg/mL] | MIC (P. vulgaris NCTC 8313; [18]) [µg/mL] | other results |
| --- | --- | --- | --- | --- | --- | --- | --- | --- | --- | --- | --- | --- | --- | --- | --- | --- | --- | --- | --- | --- | --- |
| CC(C)(O/N=C(\C(=O)N[C@@H]1C(=O)N2C(C(=O)[O-])=C(C[n+]3ccccc3)CS[C@H]12)c1csc(N)n1)C(=O)O [CAZ, Ceftazidime, reference compound] | 0.1 (≈ 0.183 µM) | 25 (≈ 45.7 µM) | 100 (≈ 183 µM) | 0.78 (≈ 1.43 µM) | 6.25 (≈ 11.4 µM) | 0.025 (≈ 0.0457 µM) | 25 (≈ 45.7 µM) | 0.05 (≈ 0.0915 µM) | – | – | – | – | – | – | – | – | – | – | – | – | MIC (Ps. aeruginosa DY-2): 1.56 µg/mL (≈ 2.85 µM); MIC (B. subtilis ATCC 6633): 1.56 µg/mL (≈ 2.85 µM); MIC (E. coli DY-1): 0.05 µg/mL (≈ 0.0915 µM); MIC [2]: 0.025 µg/mL (≈ 0.0457 µM); MIC [3]: 0.78 µg/mL (≈ 1.43 µM); MIC (E. coli No. 29; NO.29, 17 h): 0.1 µg/mL (≈ 0.183 µM); MIC (K. pneumoniae NCTC 9632): 0.05 µg/mL (≈ 0.0915 µM); antibacterial activities against Gram-positive bacteria, in particular Staphylococcus species [5]: relatively inferior antibacterial activities; MIC (M. morganii DY-1): 0.1 µg/mL (≈ 0.183 µM); MIC (Ent. cloacae IFO 13535): 1.56 µg/mL (≈ 2.85 µM); antibacterial activities against Gram-negative bacteria such as Pseudomonas aeruginosa [6]: superior antibacterial activities; MIC (E. coli NIHJ JC-2): 0.2 µg/mL (≈ 0.366 µM); MIC (Staph. aureus ATCC 6538P): 1.56 µg/mL (≈ 2.85 µM); MIC (P. vulgaris NCTC 8313): 0.025 µg/mL (≈ 0.0457 µM) |
